The test has as its system CEM cells HIV-1 protection, formazan growth assay. The test is described as follows: NCI AIDS Antiviral Assay. The note with it: for pIC50: measured here: growth of uninfected CEM cells. Put shortly: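 Soluble formazan readout of cell growth; CEM cells ± HIV-1; 5 drug concs. ≥50% protection → retest; ≥50% again = moderately active; reproducible 100% = confirmed active.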

The structures appear in SMILES notation. pEC50, pIC50: −log10 of the molar value. Activity calls are given as the source filed them.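 How the source made its calls: active means compounds giving half or more protection of infected cells from virus-caused growth loss, again on retest; inactive means the rest.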

On to `CCCCCCCCCCCCCCCCOP(=O)(O)OCCC=C(c1cc(Cl)c(O)c(C(=O)O)c1)c1cc(Cl)c(O)c(C(=O)O)c1`, for which the pEC50 (as a rule, the EC50 on a negative log10 scale, so that one unit is a factor of ten) was less than 3.84 and the pIC50 (as a rule, the IC50 on a negative log10 scale, so that one unit is a factor of ten) was 4.03.

With `C=CS(=O)(=O)c1c2cc(OC)ccc2nc2ccc(OC)cc12`, the pEC50 was less than 4.70 and the pIC50 is 5.54.

As for `N[C@H]1CCc2c1nc1c(c2-c2ccccc2)CC[C@@H]1N`, the pEC50 is less than 3.70 and the pIC50 was 4.08.

For the compound `CC(=O)OC1CCC2(C)C(CCC3C4CCC(C(C)OC(C)=O)C4NC(=O)CC32)C1` (configuration not stated), the result was inactive.

As for `O=C1CC2(CCC(O)(c3ccco3)C(C(=O)c3ccco3)C2)C(=O)c2ccccc2N1` (configuration not stated), the pEC50 is less than 3.70 and the pIC50 was less than 3.70.

Regarding `C/C([O-])=c1\c(C)nn2ccc[n+]12`, the pEC50 is less than 3.51 and the pIC50 was less than 3.51.

With `CCOC(=O)C1C(=O)CC1(C)C` (configuration not stated), the pEC50 is less than 3.70 and the pIC50 was less than 3.70.

As for `O=C1CN(C(=O)c2ccccc2)Cc2[nH]c3ccccc3c21`, the outcome was inactive.

Turning to `COc1cc(C2c3cc4c(cc3C(=O)C3CCC(=O)N32)OCO4)cc(OC)c1O` (configuration not stated), the pEC50 is less than 4.30 and the pIC50 is 4.56.

Turning to `CC1=CC(C)C(=O)N(CC(C)N2CCCC2)C(C)=C1` (configuration not stated), the pEC50 is less than 3.72 and the pIC50 is 4.13.

Take `COc1ccc(CN2CC(C)N(N=Cc3c4c(O)c5c(O)c(C)c6c(c5c3O)C(=O)C(C)(O/C=C/C(OC)C(C)C(OC(C)=O)C(C)C(O)C(C)C(O)C(C)/C=C/C=C(\C)C(=O)N4)O6)C(C)C2)cc1` (configuration not stated): the pEC50 is less than 3.70 and the pIC50 is 5.04.

On to `CC(C)Cn1cnnc1NS(=O)(=O)c1cc(C(=O)NN)c(Cl)cc1S`, for which the pEC50 was less than 3.70 and the pIC50 was less than 3.70.

For `BrCc1ccc(CBr)c2c1-c1c(CBr)ccc3ccc(CBr)c-2c13`, the pEC50 is less than 3.70 and the negative logarithm of the IC50 (pIC50) is 4.64.

With `CC1(C)OC(=O)CC12CCN(Cc1ccccc1)CC2`, the pEC50 was less than 3.70 and the pIC50 is 3.71.

In the case of `CC(=O)NC(CCCNC(=O)OCc1ccccc1)C(=O)NCc1ccccc1` (configuration not stated), the pEC50 is less than 3.77 and the pIC50 was less than 3.77.

For the compound `CCOc1ccc(N2C(=O)C3c4[nH]c5ccccc5c4C4CCC(C(C)(C)C)CC4C3C2=O)cc1` (configuration not stated), the pEC50 is less than 5.66 and the pIC50 was less than 5.66.

Turning to `CC1(C)OP(=O)(c2ccccc2)C=C1Br` (configuration not stated), the pEC50 was less than 3.70 and the pIC50 is less than 3.70.

Consider `CC(C)OC(=O)C1=C(O)c2ccccc2S(=O)(=O)N1C`, for which the pEC50 is less than 3.08 and the negative logarithm of the IC50 (pIC50) is 4.25.

Take `Cc1[nH]c(N)c(C#N)c1Cc1ccccc1`: the pEC50 was less than 3.70 and the pIC50 is less than 3.70.

Turning to `O=C1CCC(c2ccccc2)CCN1` (configuration not stated), the outcome was inactive.

With `COC(=O)N1CC=CC2(CCOCc3ccccc3)CC[C@@](O)(c3ccccc3NC(=O)C(C)(C)C)C(=O)C12` (some centres not stated), the pEC50 was less than 4.45 and the pIC50 was less than 4.45.

Consider `COc1cc(/C=C2\CCc3ccccc3C2=O)cc(OC)c1OC`, for which the pEC50 was less than 4.51 and the pIC50 is 5.01.

In the case of `O=C1CNc2cc(N3CCCCC3)ccc2N1`, the pEC50 is less than 3.70 and the pIC50 was 4.18.

`CC(=O)[O][Hg][CH2]C(O)Cn1c(=O)c2c(ncn2C)n(C)c1=O` (configuration not stated): the outcome was inactive.

Consider `CCCCCCCCCCCCCCCCOCC(CCl)OP(=O)(O)OP(=O)(O)OCC1OC(n2ccc(N)nc2=O)C(O)C1O` (configuration not stated), for which the pEC50 was less than 3.70 and the pIC50 was 3.77.

On to `CC1(O)C=CC(=O)C=C1`, for which the pEC50 was less than 2.70 and the pIC50 was 5.46.

Turning to `CCOC(=O)C1=CCOc2cc(N(C)C)ccc21`, the pEC50 was less than 3.70 and the pIC50 is 3.98.

`COc1ccc2c(c1OC)C(=O)O[C@@H]2C1c2cc3c(cc2CCN1C)OCO3` (some centres not stated): the pEC50 was less than 3.61 and the pIC50 is less than 3.61.

As for `CC(C)N=C1CCCC1C(=S)SSC(=S)C1CCCC1=NC(C)C` (configuration not stated), the pEC50 is less than 3.70 and the negative-log IC50 (pIC50) is 4.97.

`Cc1c(-c2nnc(-c3ccc(Cl)cc3)o2)c(=O)n(-c2ccccc2)n1C`: the pEC50 was less than 3.70 and the pIC50 is less than 3.70.

Turning to `O/N=c1/sc2ccccc2nc1-c1ccccc1`, the pEC50 is less than 3.70 and the pIC50 is less than 3.70.

On to `O=C(O)CSc1cc2c3ccccc3sc2c2ccccc12`, for which the pEC50 was less than 5.21 and the pIC50 is less than 5.21.

For the compound `CCOP(=O)(CN=C(c1ccccc1)c1ccccc1)OCC`, the pEC50 was less than 3.70 and the pIC50 was less than 3.70.

For the compound `Cc1ccc(NC(=O)C2C(=O)N(c3ccc(C)c(C)c3)C(=O)/C2=N\NC(N)=O)cc1C` (configuration not stated), the outcome was inactive.

For `CC(=O)OC/C=C/[C@H](O[Si](C)(C)C(C)(C)C)[C@@H](O)/C=C/COC(C)=O`, the pEC50 is less than 3.70 and the pIC50 was 3.79.

Consider `COC(=O)CC[C@@H](NC(=O)C(C)NC(=O)COC1C(O)C(COC(=O)CCCCCCCCCCNC(=O)c2ccc([N+](=O)[O-])c3[nH]c4cc(Br)ccc4c(=O)c23)OC(OCc2ccccc2)C1NC(C)=O)C(N)=O` (some centres not stated), for which the result was inactive.

For `c1ccc(C2OCC(OC3CCCCO3)CO2)cc1` (configuration not stated), the pEC50 was less than 3.70 and the negative logarithm of the IC50 (pIC50) is less than 3.70.

As for `CC12OC(=O)C(C(N)=O)=C1C=C(c1ccccc1)CC2c1ccccc1` (configuration not stated), the pEC50 was less than 3.70 and the pIC50 is 4.48.

With `CCCCNC(=O)/N=C/c1c(O)c2ccccc2oc1=O`, the pEC50 is less than 4.04 and the pIC50 is 4.23.

In the case of `CCCN(CCC)/N=C/c1c2c(O)c3c(O)c(C)c4c(c3c1O)C(=O)C(C)(O/C=C/C(OC)C(C)C(OC(C)=O)C(C)C(O)C(C)C(O)C(C)/C=C/C=C(C)C(=O)N2)O4` (configuration not stated), the pEC50 was less than 3.70 and the pIC50 is 5.46.

`COc1cccc(N=NN2CCCC2)c1`: the pEC50 is less than 3.70 and the pIC50 is 4.04.

As for `CC1(C)C=[N+]([O-])C(C)(C)N1O`, the pEC50 is less than 3.70 and the negative logarithm of the IC50 (pIC50) was less than 3.70.

Regarding `COc1cc(C2(C)SCCCS2)c(I)c(OC)c1OC`, the pEC50 is less than 3.63 and the pIC50 was 5.21.

Turning to `COc1cccc(NC(=O)CC(=O)n2nc(C)c(N=Nc3ccccc3F)c2C)c1`, the outcome was inactive.

Take `O=C(N/N=C/c1ccco1)c1ccc(OCc2nc3ccccc3[nH]2)cc1`: the pEC50 is less than 3.70 and the pIC50 was 4.08.

As for `CCC(=O)OC1CCn2c1nc1c2C(=O)C(C)=C(N2CC2)C1=O` (configuration not stated), the pEC50 is less than 3.70 and the pIC50 was 6.24.

On to `O=C1C(=O)C2(CC1S(=O)(=O)c1ccccc1)c1ccccc1-c1ccccc12` (configuration not stated), for which the result was inactive.

Turning to `O=C1NC2(C=Cc3c(ccc4ccccc34)O2)Oc2ccccc21` (configuration not stated), the pEC50 is less than 4.94 and the pIC50 was less than 4.94.

Consider `CCCNC(=S)/N=C/c1c(O)cc(C)oc1=O`, for which the pEC50 was less than 3.70 and the pIC50 is less than 3.70.

Take `C[n+]1cn(-c2ccc([N+](=O)[O-])cn2)c2ccccc21`: the pEC50 was less than 3.70 and the pIC50 is 3.77.

In the case of `NC(=S)N/N=C1\CCCC\C1=N/NC(N)=S`, the pEC50 was less than 3.70 and the pIC50 is 4.75.

As to `CC(=O)NC1C(O)CC(O)(C(=O)O)OC1C(O)C(O)CO` (configuration not stated), the outcome was inactive.

With `CCOC(=O)C(O)(C(=O)OCC)c1cc(C(C)(C)C)c(O)c(C(C)(C)C)c1`, the pEC50 was less than 3.70 and the pIC50 was 4.08.

Turning to `O=c1c2ccccc2nc(-c2ccccc2)n1NCC1(O)OCC(O)C(O)C1O` (configuration not stated), the result was inactive.

With `C[C@@H](NC(=O)Nc1cccc(C(=O)Nc2cc(C(C)(C)C)ccc2C(=O)O)n1)c1ccccc1`, the pEC50 is less than 3.70 and the pIC50 was 4.76.

`OCc1ncccc1O`: the pEC50 was less than 3.70 and the pIC50 was less than 3.70.

On to `O=C1/C(=C/c2cccc(F)c2)CCCc2ccccc21`, for which the pEC50 was less than 3.70 and the pIC50 is 4.71.

In the case of `FC(F)(F)c1ccc2c(-c3cc[nH]c3)ccnc2c1`, the pEC50 was less than 3.70 and the pIC50 is 4.81.

For `NC(CSSCC(N)=NC1CCCCC1)=NC1CCCCC1`, the pEC50 is less than 3.70 and the pIC50 was 4.02.

For the compound `O=S(=O)(O)c1c(Cl)c(Cl)c(O)c2ncccc12`, the pEC50 was less than 3.70 and the pIC50 is 5.93.

`CCNC(CCCC(NCC)P(=O)(O)O)P(=O)(O)O` (configuration not stated): the outcome was inactive.

For the compound `COc1ccc2c(O)c(S(=O)(=O)c3ccc(C)cc3)c(=O)oc2c1OC`, the pEC50 is less than 4.00 and the pIC50 was less than 4.00.

As to `CCN(CC)CCN1C=CC(C)C(C(=O)O)C1C(N)=O` (configuration not stated), the pEC50 is less than 4.00 and the negative logarithm of the IC50 (pIC50) was less than 4.00.

Consider `CN(C)c1ccc(/C=N\NC(=O)c2ccccc2Nc2ccccc2C(=O)N/N=C/c2ccc(N(C)C)cc2)cc1`, for which the pEC50 was 4.18 and the pIC50 is less than 3.70.

With `COc1ccc(NS(=O)c2ccc(Cl)cc2)cc1` (configuration not stated), the pEC50 is less than 3.70 and the pIC50 is 4.76.

For `CCCN(CCC)CCc1cc(C(C)=O)n(S(=O)(=O)c2ccc(C)cc2)c1`, the pEC50 is less than 3.23 and the pIC50 was 3.58.

In the case of `Nc1nc(NCCCO)cc(=O)[nH]1`, the pEC50 was less than 3.70 and the pIC50 was less than 3.70.

On to `O=C1C(Cl)C(c2ccc(Cl)cc2)N1n1cnc2ccccc2c1=O` (configuration not stated), for which the pEC50 was less than 4.73 and the pIC50 is less than 4.73.

For `Cc1ccc(NC(=O)c2c(N)c(C#N)c3n2CCC3)cc1`, the pEC50 was less than 3.70 and the pIC50 was less than 3.70.

For `Cn1c(N)c(-c2c3ccccc3nc3ccccc23)c(=O)n(C)c1=O`, the pEC50 was less than 4.39 and the pIC50 was less than 4.39.

As for `CC(C)(C)C(C)(C)SSC(C)(C)C(C)(C)C`, the pEC50 is less than 3.70 and the pIC50 was less than 3.70.

As to `S=C(/C=C1\SC(=Nc2ccccc2)C(=Nc2ccccc2)N1c1ccccc1)Nc1ccccc1`, the pEC50 was less than 3.70 and the pIC50 is less than 3.70.

With `CCOC(=O)c1cc2cc([N+](=O)[O-])ccc2oc1=O`, the pEC50 was less than 3.98 and the pIC50 is less than 3.98.

Take `CCOP(=O)(OCC)c1ccc[nH]1`: the pEC50 is less than 3.70 and the pIC50 is less than 3.70.
